We go through two compounds from article PMC9709641 (Frontiers in Plant Science, 2022).

Assay [1] has as its target α-glucosidase. The assay is described as follows: PNPG hydrolysis assay, absorbance at […] nm. The class given is biochemical.
Assay [2] has as its target α-glucosidase. The assay can be described thus: PNPG hydrolysis assay, absorbance at […] nm; maximum inhibition […] at […]. The class given is biochemical.

As to `N#CC(O)c1ccc(O)cc1` (centres unmarked) [4-hydroxymandelonitrile], the IC50 at α-glucosidase [1] worked out at 15.8 µM.

Regarding eleutheroside E, at α-glucosidase [2], the IC50 was 190 nM. That is a sub-micromolar value.
